We go through 18 compounds from ChEMBL document CHEMBL3045233, “Insecticidal and neuroblocking potencies of variants of the imidazolidine moiety of imidacloprid-related neonicotinoids and the relationship to partition coefficient and charge density on the pharmacophore” (J Agric Food Chem, 2007).

Data set [1] can be described thus: Hydrophobicity, log P of the compound in octanol-water by shaking-flask method. Type of data set: physicochemical.
The test system of another data set is Periplaneta americana. Put plainly: Toxic effect in Periplaneta americana (American cockroach) assessed as paralyzed insects after 24 hr of abdomen compound injection by insecticidal assay. Type of data set: functional.
Data set [2] has as its target T1, Nicotinic acetylcholine receptor alpha8 subunit (Periplaneta americana) (UniProt H6TY12).
T1 sequence (whole entry): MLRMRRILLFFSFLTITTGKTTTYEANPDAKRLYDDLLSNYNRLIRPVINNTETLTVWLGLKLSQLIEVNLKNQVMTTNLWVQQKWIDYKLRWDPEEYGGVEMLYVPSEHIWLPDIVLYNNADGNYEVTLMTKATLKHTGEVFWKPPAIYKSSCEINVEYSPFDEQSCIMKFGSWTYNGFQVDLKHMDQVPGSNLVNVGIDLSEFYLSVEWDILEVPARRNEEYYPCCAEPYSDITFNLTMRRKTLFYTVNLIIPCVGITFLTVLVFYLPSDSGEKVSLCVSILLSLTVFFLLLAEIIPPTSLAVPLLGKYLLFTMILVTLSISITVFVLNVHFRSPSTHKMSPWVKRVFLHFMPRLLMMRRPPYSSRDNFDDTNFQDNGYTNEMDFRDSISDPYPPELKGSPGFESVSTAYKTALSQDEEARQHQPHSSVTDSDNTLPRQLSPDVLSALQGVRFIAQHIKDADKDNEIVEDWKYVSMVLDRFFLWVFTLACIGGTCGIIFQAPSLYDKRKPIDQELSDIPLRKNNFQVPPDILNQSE
Put plainly: Neuroblocking activity in Periplaneta americana (American cockroach) nicotinic acetylcholine receptor in abdominal fifth and sixth ganglia nerve assessed as neuroblocking concentration by neurophysiological test.

As usually defined, the logP is the decadic logarithm of the partition coefficient of the neutral form, usually between octanol and water. The low end stands for lower lipophilicity, the high end for higher lipophilicity.

Structures are written as SMILES.

For the compound `O=[N+]([O-])/N=c1\sccn1Cc1cnc(Cl)s1`, the lipophilicity (logP) in data set [1] worked out at 0.96. The “log(1/MLD)” value in the data set on Periplaneta americana came out at 7.85. The log(1/BC) in data set [2] was 5.79.

As to `CN1CCN(Cc2ccc(Cl)nc2)/C1=N/[N+](=O)[O-]`, the logP in data set [1] was -0.07. Moreover, the “log(1/MLD)” value with Periplaneta americana came to 8.53. For the same compound, in data set [2], the log(1/BC) is 3.81.

Consider `O=[N+]([O-])/C=C1\CCCN1Cc1ccc(Cl)nc1`, for which the logP in data set [1] was determined as 0.45. Also, the “log(1/MLD)” value in the data set with Periplaneta americana is listed as 9.84. In addition, the log(1/BC) in data set [2] was 6.43.

Take `O=[N+]([O-])/N=c1\ccccn1Cc1ccc(Cl)nc1`: in data set [1], the log partition coefficient (logP) came to 0.51. Further, in the data set on Periplaneta americana, the “log(1/MLD)” value stood at 8.88. The log(1/BC) in data set [2] amounted to 5.09.

Take `O=[N+]([O-])/C=C1\NCCN1Cc1cnc(Cl)s1`: the logP in data set [1] came out at 0.03. Also, the “log(1/MLD)” value with Periplaneta americana is listed as 9.34. Moreover, the log(1/BC) in data set [2] is 5.73.

Compound `O=[N+]([O-])/N=C1\NCCCN1Cc1ccc(Cl)nc1` yielded a logP in data set [1] of 0.57. Moreover, in the data set on Periplaneta americana, the “log(1/MLD)” value is 8.22. For the same compound, in data set [2], the log(1/BC) is 5.35.

On to `O=[N+]([O-])/N=c1\ccccn1Cc1cnc(Cl)s1`, for which the logP in data set [1] is 0.67. For the same compound, the “log(1/MLD)” value in the data set with Periplaneta americana came to 8.92. In data set [2], the log(1/BC) worked out at 5.75.

In the case of `O=[N+]([O-])/C=C1\CCCN1Cc1cnc(Cl)s1`, the “log(1/MLD)” value in the data set on Periplaneta americana is 8.96. Moreover, in data set [2], the log(1/BC) stood at 6.31.

`O=[N+]([O-])/N=c1\sccn1Cc1ccc(Cl)nc1` gave a logP in data set [1] of 0.53. In the data set on Periplaneta americana, the “log(1/MLD)” value was found to be 8.85. The log(1/BC) in data set [2] amounted to 5.68.

In turn, `O=[N+]([O-])/C=C1\SCCN1Cc1ccc(Cl)nc1` registered a lipophilicity (logP) in data set [1] of 0.47. Besides, in the data set on Periplaneta americana, the “log(1/MLD)” value was found to be 9.76. Further, in data set [2], the log(1/BC) stood at 6.19.

Compound `O=[N+]([O-])NC1=NCCN1Cc1ccc(Cl)nc1` [IMIDACLOPRID] gave a logP in data set [1] of 0.53.

Regarding `O=[N+]([O-])/N=C1\NCCN1Cc1cnc(Cl)s1` [IMIDACLOTHIZ], in data set [1], the logP came to 0.61. Besides, the “log(1/MLD)” value in the data set with Periplaneta americana was determined as 8.42. In addition, the log(1/BC) in data set [2] was 5.97.

As for `O=[N+]([O-])/N=C1\SCCN1Cc1cnc(Cl)s1`, the logP in data set [1] came out at 0.8. Also, the “log(1/MLD)” value with Periplaneta americana is recorded as 7.42. Also, in data set [2], the log(1/BC) came to 6.

In the case of `O=[N+]([O-])/N=C1\NCCN1Cc1ccc(Cl)nc1` [IMIDACLOPRID], in the data set with Periplaneta americana, the “log(1/MLD)” value turned out to be 8.96. In addition, the log(1/BC) in data set [2] was 5.64.

The compound `O=[N+]([O-])Nc1nccn1Cc1ccc(Cl)nc1` [DEHYDROIMIDACLOPRID] had a logP in data set [1] of 0.33. Moreover, the “log(1/MLD)” value in the data set with Periplaneta americana is 7.72. Besides, the log(1/BC) in data set [2] was 4.31.

For the compound `O=[N+]([O-])/C=C1\NCCN1Cc1ccc(Cl)nc1`, the log partition coefficient (logP) in data set [1] is -0.18. Besides, in the data set with Periplaneta americana, the “log(1/MLD)” value was 9.19. Moreover, the log(1/BC) in data set [2] was found to be 5.02.

As to `O=[N+]([O-])/N=c1\[nH]ccn1Cc1cnc(Cl)s1`, the log partition coefficient (logP) in data set [1] was 0.27. The “log(1/MLD)” value in the data set on Periplaneta americana is recorded as 8.12. For the same compound, the log(1/BC) in data set [2] worked out at 4.61.

Regarding `CN1CCN(Cc2ccc(Cl)nc2)/C1=C/[N+](=O)[O-]`, in data set [1], the logP is -0.84. The “log(1/MLD)” value with Periplaneta americana was 7.77. Besides, the log(1/BC) in data set [2] was found to be 3.84.
